The data set can be described thus: Thermal stability of IPBC in lubricant mixtures, oven at 180° C., amount determined by HPLC. Format: physicochemical. How it is done: Except for example 2 wherein 100% IPBC was used, the antimicrobial agent was admixed with the lubricating agent at room temperature overnight in a roller mixer. Samples of the resulting mixtures were then placed in a conventional oven at 180° C. for the time specified below (5 minutes and 132 minutes). The amount of antimicrobial agent in the sample, initially and after heating, was determined by HPLC. All samples were contained in dark bottles and covered with aluminum foil during heating.
The samples were prepared and tested as described in Examples 1-5.

The text below walks through data of patent publication US20060029649A1, “Stabilized antimicrobial agents” (priority 2004, published 2006).

Each structure is given as a SMILES string.

Turning to `CCCCNC(=O)OCC#CI` [Example 2, 3-iodo-2-propynyl butyl carbamate], for the setting “after 5 minutes in oven at 180° C.”, the “% Biocide/ 5 min.” value is 83%. Further, the “% Biocide/ 132 min.” value (after 132 minutes in oven at 180° C.) was found to be 0%. Also, the “% Initial Biocide” value (before heating, by weight) is 100%.
